Source: PMC6407579, “New flavonoid – N,N-dibenzyl(N-methyl)amine hybrids: Multi-target-directed agents for Alzheimer´s disease endowed with neurogenic properties” (Journal of Enzyme Inhibition and Medicinal Chemistry, 2019)
Several values for one entry are separate records, joined by “and”; a condition that tells them apart may be missing. Equal entries are not always repeated. Where two headings read alike, the source gives them in different places.

Experiments:
hLOX-5 = biological target: T1, hLOX-5 (Homo sapiens, UniProt P09917); test: Inhibition of human lipoxygenase-5 (fluorescence-based, Pufahl); type: biochemical; settings: three independent experiments
T1 sequence (P09917 1-674): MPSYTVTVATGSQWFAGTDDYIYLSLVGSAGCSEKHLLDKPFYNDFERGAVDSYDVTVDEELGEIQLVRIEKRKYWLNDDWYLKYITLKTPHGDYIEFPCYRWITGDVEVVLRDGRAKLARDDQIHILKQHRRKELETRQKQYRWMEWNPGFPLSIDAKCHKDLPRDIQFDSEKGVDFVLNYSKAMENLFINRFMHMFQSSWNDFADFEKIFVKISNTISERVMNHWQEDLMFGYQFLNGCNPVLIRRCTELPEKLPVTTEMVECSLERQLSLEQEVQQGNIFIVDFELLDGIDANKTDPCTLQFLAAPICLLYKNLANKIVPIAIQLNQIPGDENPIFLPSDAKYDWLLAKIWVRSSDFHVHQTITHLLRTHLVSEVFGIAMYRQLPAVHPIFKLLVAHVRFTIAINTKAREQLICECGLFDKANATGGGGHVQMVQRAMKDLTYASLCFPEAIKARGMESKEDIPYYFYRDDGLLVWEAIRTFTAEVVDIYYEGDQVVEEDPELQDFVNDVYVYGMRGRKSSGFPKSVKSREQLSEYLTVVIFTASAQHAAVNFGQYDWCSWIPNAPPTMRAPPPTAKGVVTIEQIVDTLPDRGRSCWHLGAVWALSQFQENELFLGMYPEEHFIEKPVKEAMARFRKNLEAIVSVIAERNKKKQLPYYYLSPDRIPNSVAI
Method: The fluorescence-based enzyme method developed by Pufahl et al. was followed, in 96-well microtiter plates. The assay solution consists of Tris buffer (50 mM, pH 7.5), ethylenediaminetetraacetic acid (EDTA, 2 mM), CaCl2 (2 mM), arachidonic acid (AA, 3 μM), ATP (10 μM), 2',7'-dichlorodihydrofluorescein diacetate (H2DCFDA, 10 μM), hLOX-5 (100 mU/well), bovine glutathione peroxidase (GPx, 25 mU/well) and reduced glutathione (GSH, 1 mM). Compounds to be tested were added to the test solution prior to AA and ATP, and pre-incubated for a period of 10 min at room temperature. Then, the AA and ATP substrates were added; the enzymatic reaction allowed to progress for 20 min and ended by the addition of 40 μL of acetonitrile.
A selection of new hybrids covering different structural motifs was assayed as inhibitors of hLOX-5, followed the method described by Pufahl et al.[55].

recombinant hMAO-B = biological target: T2, recombinant hMAO-B (Homo sapiens, UniProt P27338); test: biochemical; type: biochemical; settings: mean ± SEM (n = 3); 100 µM highest concentration tested
T2 sequence (P27338 1-520): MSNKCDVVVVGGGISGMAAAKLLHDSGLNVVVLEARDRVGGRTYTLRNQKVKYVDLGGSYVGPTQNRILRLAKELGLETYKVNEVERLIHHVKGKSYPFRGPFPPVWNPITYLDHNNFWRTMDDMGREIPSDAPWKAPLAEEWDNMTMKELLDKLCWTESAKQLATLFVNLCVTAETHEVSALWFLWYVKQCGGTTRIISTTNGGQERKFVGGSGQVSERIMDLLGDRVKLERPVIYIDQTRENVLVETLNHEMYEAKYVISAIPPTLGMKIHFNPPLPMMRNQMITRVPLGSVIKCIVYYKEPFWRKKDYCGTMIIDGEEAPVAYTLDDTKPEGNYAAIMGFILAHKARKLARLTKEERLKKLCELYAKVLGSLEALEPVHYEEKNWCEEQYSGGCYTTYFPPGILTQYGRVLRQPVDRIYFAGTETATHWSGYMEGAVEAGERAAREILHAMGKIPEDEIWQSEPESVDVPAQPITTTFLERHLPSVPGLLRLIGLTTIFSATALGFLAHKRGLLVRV

[1] = biological target: T3, human recombinant AChE (hAChE) (Homo sapiens, UniProt P22303); test: biochemical
T3 construct: purchased Sigma Chemical Co
Method: The Ellman method was followed, using human recombinant AChE and BuChE from human serum. The assay solution consisted of 0.1 M phosphate buffer pH 8.0, 400 μM 5,5´-dithiobis(2-nitrobenzoic acid) (DTNB, Ellman’s reagent), 0.05 U/mL hAChE (Sigma Chemical Co.) or 0.024 U/mL hBuChE (Sigma Chemical Co.), and 800 μM acetylthiocholine iodide, or 500 μM butyrylthiocholine as the substrate of the enzymatic reaction, respectively. The compounds tested were added to the assay solution and preincubated with the enzyme for 5 min at 30 °C. After that period, the substrate was added.

[2] = In vitro blood-brain barrier permeation assay (PAMPA-BBB); type: in vitro ADME; settings: pig, pH 7.4, porcine brain lipid, PBS:ethanol (70:30), 25 °C, read-out: PAMPA-BBB permeability in the CNS (Pe)
Method: Prediction of the brain penetration was evaluated using a parallel artificial membrane permeation assay (PAMPA-BBB), in a similar manner as previously described[36]^,[46]^,[51–53]. Pipetting was performed with a semi-automatic pipettor (CyBi®-SELMA) and UV reading with a microplate spectrophotometer (Multiskan Spectrum, Thermo Electron Co.). Commercial drugs, phosphate buffered saline solution at pH 7.4 (PBS), and dodecane were purchased from Sigma, Aldrich, Acros, and Fluka. Millex filter units (PVDF membrane, diameter 25 mm, pore size 0.45 μm) were acquired from Millipore. The porcine brain lipid (PBL) was obtained from Avanti Polar Lipids. The donor microplate was a 96-well filter plate (PVDF membrane, pore size 0.45 μm) and the acceptor microplate was an indented 96-well plate, both from Millipore. The acceptor 96-well microplate was filled with 200 μL of PBS: ethanol (70:30) and the filter surface of the donor microplate was impregnated with 5 μL of porcine brain lipid (PBL) in dodecane (20 mg mL^−1). Compounds were dissolved in PBS: ethanol (70:30) at 100 μg mL^−1, filtered through a Millex filter, and then added to the donor wells (200 μL). The donor filter plate was carefully put on the acceptor plate to form a sandwich, which was left undisturbed for 120 min at 25 °C. After incubation, the donor plate is carefully removed and the concentration of compounds in the acceptor wells was determined by UV-Vis spectroscopy. Every sample is analysed at five wavelengths, in four wells and at least in three independent runs, and the results are given as the mean ± standard deviation. In each experiment, 11 quality control standards of known BBB permeability were included to validate and normalise the analysis set.
To check if new compounds could be able to reach their CNS-targets, we used the in vitro parallel artificial membrane permeability assay for the blood-brain barrier (PAMPA-BBB) described by Di et al.[87], and partially modified by us for testing molecules with limited water-solubility[36]^,[46]^,[51–53]. The passive CNS-permeation of new compounds 1–13 through a lipid extract of porcine brain was measured at room temperature. In each experiment, 11 commercial drugs of known brain permeability were also tested and their permeability values normalised to the reported PAMPA-BBB data. […].

[3] = mean ± SEM, read-out: hLOX-5 IC50
[4] = mean ± SEM (n = 3), read-out: hAChE IC50

T3 sequence (P22303 32-614): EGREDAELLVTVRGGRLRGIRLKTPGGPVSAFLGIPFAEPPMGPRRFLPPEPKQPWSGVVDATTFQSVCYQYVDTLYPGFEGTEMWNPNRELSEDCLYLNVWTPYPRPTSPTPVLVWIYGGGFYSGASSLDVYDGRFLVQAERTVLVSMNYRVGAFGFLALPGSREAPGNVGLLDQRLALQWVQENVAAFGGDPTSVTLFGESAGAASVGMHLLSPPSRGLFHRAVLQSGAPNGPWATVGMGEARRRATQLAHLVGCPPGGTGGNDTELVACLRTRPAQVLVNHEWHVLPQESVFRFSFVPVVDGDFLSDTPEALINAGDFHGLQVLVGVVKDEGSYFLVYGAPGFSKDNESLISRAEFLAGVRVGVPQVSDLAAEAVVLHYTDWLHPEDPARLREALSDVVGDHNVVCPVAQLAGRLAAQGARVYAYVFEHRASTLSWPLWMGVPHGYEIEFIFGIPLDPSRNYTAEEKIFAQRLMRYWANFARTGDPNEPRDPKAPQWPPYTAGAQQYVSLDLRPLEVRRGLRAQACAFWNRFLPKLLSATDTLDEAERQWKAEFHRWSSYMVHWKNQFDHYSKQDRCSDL

SMILES | IC50 (hLOX-5; [3]) | IC50 (recombinant hMAO-B) | IC50 [1, 4] | Papp at 120 min, 100 μg mL^−1 [2] | IC50 (hLOX-5; hLOX-5 IC50, mean ± SEM) | IC50 ([1]; hAChE IC50, mean ± SEM (n = 3)) | hLOX-5 IC50 (hLOX-5; mean ± SEM)
COc1ccc2oc(C(=O)Nc3ccc(CN(C)Cc4ccccc4)cc3)cc(=O)c2c1 [Compound 1, N-(4-((Benzyl(methyl)amino)methyl)phenyl)-6-methoxy-4-oxo-4H-chromene-2-carboxamide] | 12.4 ± 0.5 µM | 59.8 ± 3.7 µM | 1.5 ± 0.2 µM | 17.1 ± 1.5 ×10⁻⁶ cm/s |  |  | 
COc1cc2oc(C(=O)Nc3cccc(CN(C)Cc4ccccc4)c3)cc(=O)c2cc1OC [Compound 6, N-(3-((Benzyl(methyl)amino)methyl)phenyl)-6,7-dimethoxy-4-oxo-4H-chromene-2-carboxamide] |  | > 100 µM |  | 18.8 ± 1.3 ×10⁻⁶ cm/s | 30 µM and 30.4 µM | 4.5 ± 0.8 µM | 
COc1cc2oc(C(=O)Nc3ccc(CN(C)Cc4ccccc4)cc3)cc(=O)c2cc1OC [Compound 5, N-(4-((Benzyl(methyl)amino)methyl)phenyl)-6,7-dimethoxy-4-oxo-4H-chromene-2-carboxamide] | 72.4 ± 2.2 µM | 8.1 ± 0.4 µM |  | 19.1 ± 1.5 ×10⁻⁶ cm/s |  | 0.99 µM and 1 µM | 
CN(Cc1ccccc1)Cc1ccc(NC(=O)c2cc(=O)c3cc(O)ccc3o2)cc1 [Compound 2, N-(4-((Benzyl(methyl)amino)methyl)phenyl)-6-hydroxy-4-oxo-4H-chromene-2-carboxamide] | > 100 µM | 9.7 ± 1.6 µM | 1.3 ± 0.3 µM | 6.8 ± 0.4 ×10⁻⁶ cm/s |  |  | inactive
